US6984403B2, “Azithromycin dosage forms with reduced side effects” (Pfizer Inc., priority 2003, dated 2006)
≈ marks a conversion by molar mass, not a printed value. Where two headings read alike, the source gives them in different places.

Columns and labels:
[1] = cited from earlier work
[2] = 3,995 human patients, all dose levels combined, cited from earlier work
[3] = taken simultaneously with antacids; cited from earlier work
[4] = Azithromycin solubility as a function of pH; type: physicochemical
Method: The effective amount of alkaline agent that would suppress the dissolution of azithromycin in the stomach and thereby result in an improvement in the toleration of the immediate release (IR) formulation was calculated as follows. The IR formulation, without an alkalizing agent, releases about 92% of the drug in 30 minutes at pH 6.0 as described in Example 5, i.e., 3.07% per minute at pH 6.0. To improve the toleration, the azithromycin dissolution rate must be reduced, preferably to a rate that will release only about 1.5 gA, or less, in the first 30 minutes or no greater than 2.5% per minute. It was assumed that the rate of drug dissolution from an IR formulation is directly proportional to the solubility of azithromycin, which is dependent on the pH as shown in Table 10.

[5] = adult humans, single 1 gram dose, oral suspension
[6] = adult humans, single 2 gram, oral suspension
[7] = pediatric humans, oral suspension 10 mg/kg on Day 1 and 5 mg/kg on days 2–5
[8] = pediatric humans, single 30 mg/kg dose, oral suspension

CC[C@H]1OC(=O)[C@H](C)[C@@H](O[C@H]2C[C@@](C)(OC)[C@@H](O)[C@H](C)O2)[C@H](C)[C@@H](O[C@@H]2O[C@H](C)C[C@H](N(C)C)[C@H]2O)[C@](C)(O)C[C@@H](C)CN(C)[C@H](C)[C@@H](O)[C@]1(C)O [Azithromycin, azithromycin]
reported incidence of abdominal pain [1, 5]: 5%
reported incidence of diarrhea/loose stools [1, 5]: 7%
reported incidence of nausea [1, 5]: 5%
reported incidence of vomiting [1, 5]: 2%
reported incidence of abdominal pain [1, 6]: 7%
reported incidence of diarrhea/loose stools [1, 6]: 14%
reported incidence of vomiting [1, 6]: 7%
reported incidence of abdominal pain [1, 7]: 2%
reported incidence of diarrhea/loose stools [1, 7]: 4%
reported incidence of vomiting [1, 7]: 2%
reported incidence of diarrhea/loose stools [1, 8]: 6.4%
reported incidence of nausea [1, 8]: 1.7%
reported incidence of vomiting [1, 8]: 4%
patients reporting GI side effects ([2]; oral): 9.6%
frequency of abdominal pain [2]: 2.5%
frequency of diarrhea [2]: 3.6%
frequency of nausea [2]: 2.6%
reduction of azithromycin maximum serum concentration Cmax by antacids [3]: 24%
solubility ([4]; aqueous buffer, pH 6.0, obtained by interpolation from Table 10, read-out: azithromycin solubility at pH 6.0): 390 mg/mL (≈ 521 mM)
solubility ([4]; pH 2.88, aqueous buffer, read-out: Azithromycin Solubility): 440 mg/mL (≈ 587 mM)
solubility ([4]; pH 4.09, aqueous buffer, read-out: Azithromycin Solubility): 430 mg/mL (≈ 574 mM)
solubility ([4]; pH 6.15, aqueous buffer, read-out: Azithromycin Solubility): 380 mg/mL (≈ 507 mM)
solubility ([4]; pH 6.42, aqueous buffer, read-out: Azithromycin Solubility): 310 mg/mL (≈ 414 mM)
solubility ([4]; pH 6.61, aqueous buffer, read-out: Azithromycin Solubility): 250 mg/mL (≈ 334 mM)
solubility ([4]; pH 6.65, aqueous buffer, read-out: Azithromycin Solubility): 140 mg/mL (≈ 187 mM)
solubility ([4]; pH 6.75, aqueous buffer, read-out: Azithromycin Solubility): 120 mg/mL (≈ 160 mM)
solubility ([4]; pH 6.87, aqueous buffer, read-out: Azithromycin Solubility): 36 mg/mL (≈ 48.1 mM)
solubility ([4]; pH 7.41, aqueous buffer, read-out: Azithromycin Solubility): 5 mg/mL (≈ 6.68 mM)
solubility ([4]; pH 8.02, aqueous buffer, read-out: Azithromycin Solubility): 0.5 mg/mL (≈ 0.668 mM)
solubility ([4]; pH 8.85, aqueous buffer, read-out: Azithromycin Solubility): 0.02 mg/mL (≈ 0.0267 mM)
solubility ([4]; pH 10.34, aqueous buffer, read-out: Azithromycin Solubility): 0.005 mg/mL (≈ 0.00668 mM)
